Data taken from PMC3914206.

Experiments:
Type in all cases: binding
Set-up in all cases: KINOMEscan: ABL1(F317L)-phosphorylated / KINOMEscan: ABL1(H396P)-nonphosphorylated / KINOMEscan: ABL1(H396P)-phosphorylated / KINOMEscan: ABL1(M351T)-phosphorylated / KINOMEscan: ABL1(T315I)-phosphorylated / KINOMEscan: ABL1-nonphosphorylated / KINOMEscan: ABL1-phosphorylated / KINOMEscan: ACVR2A / KINOMEscan: ACVR2B / KINOMEscan: ADCK3 / KINOMEscan: ADCK4 / KINOMEscan: AKT1 / KINOMEscan: AKT3 / KINOMEscan: ALK / KINOMEscan: ARK5 / KINOMEscan: AURKA / KINOMEscan: AURKC / KINOMEscan: BIKE / KINOMEscan: BMPR1A / KINOMEscan: BMPR1B / KINOMEscan: BMX / KINOMEscan: BRK / KINOMEscan: BRSK1 / KINOMEscan: BRSK2 / KINOMEscan: CAMK1 / KINOMEscan: CAMK1D / KINOMEscan: CAMK1G / KINOMEscan: CAMK2A / KINOMEscan: CAMK2B / KINOMEscan: AAK1 / KINOMEscan: CAMK2D / KINOMEscan: CAMK2G / KINOMEscan: ABL1(F317I)-nonphosphorylated / KINOMEscan: ABL1(F317I)-phosphorylated / KINOMEscan: ABL1(F317L)-nonphosphorylated: unit: % Ctrl
Settings in all cases: Compound Concentration 10 µM
[1] = biological target: T1, panel of 442 kinases (Homo sapiens, UniProt O15111)
T1 construct: purchased KINOMEscan
T1 sequence (O15111 1-745): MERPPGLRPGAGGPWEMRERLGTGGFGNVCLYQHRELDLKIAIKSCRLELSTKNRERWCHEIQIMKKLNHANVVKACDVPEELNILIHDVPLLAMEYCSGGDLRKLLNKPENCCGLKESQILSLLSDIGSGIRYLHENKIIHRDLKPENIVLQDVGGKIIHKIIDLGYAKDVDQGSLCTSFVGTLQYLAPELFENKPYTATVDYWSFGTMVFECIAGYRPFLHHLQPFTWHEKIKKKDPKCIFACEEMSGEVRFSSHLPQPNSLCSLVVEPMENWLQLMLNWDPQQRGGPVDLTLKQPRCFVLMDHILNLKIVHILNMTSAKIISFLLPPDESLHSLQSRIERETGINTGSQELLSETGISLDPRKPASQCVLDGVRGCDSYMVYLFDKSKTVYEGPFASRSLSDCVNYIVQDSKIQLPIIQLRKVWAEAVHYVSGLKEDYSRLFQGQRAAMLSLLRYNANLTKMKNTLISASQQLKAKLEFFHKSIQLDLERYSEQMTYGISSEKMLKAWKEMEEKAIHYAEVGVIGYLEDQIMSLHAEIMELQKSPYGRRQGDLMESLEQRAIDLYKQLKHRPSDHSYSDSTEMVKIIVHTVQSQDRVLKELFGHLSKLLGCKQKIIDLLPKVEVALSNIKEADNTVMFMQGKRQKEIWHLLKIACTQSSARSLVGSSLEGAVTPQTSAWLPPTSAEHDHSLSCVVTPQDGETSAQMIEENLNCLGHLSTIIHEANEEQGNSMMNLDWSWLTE
From the text: (§1) We assessed the selectivity of members of this scaffold using the KINOMEscan methodology across a near comprehensive panel of 442 kinases [[18,27]].

[2] = biological target: T2, panel of 442 kinases (Homo sapiens, UniProt Q13705)
T2 construct: purchased KINOMEscan
From the text: as §1

[3] = biological target: T3, panel of 442 kinases (Homo sapiens, UniProt P42345)
T3 construct: purchased KINOMEscan
From the text: as §1

T2 sequence (Q13705 19-512): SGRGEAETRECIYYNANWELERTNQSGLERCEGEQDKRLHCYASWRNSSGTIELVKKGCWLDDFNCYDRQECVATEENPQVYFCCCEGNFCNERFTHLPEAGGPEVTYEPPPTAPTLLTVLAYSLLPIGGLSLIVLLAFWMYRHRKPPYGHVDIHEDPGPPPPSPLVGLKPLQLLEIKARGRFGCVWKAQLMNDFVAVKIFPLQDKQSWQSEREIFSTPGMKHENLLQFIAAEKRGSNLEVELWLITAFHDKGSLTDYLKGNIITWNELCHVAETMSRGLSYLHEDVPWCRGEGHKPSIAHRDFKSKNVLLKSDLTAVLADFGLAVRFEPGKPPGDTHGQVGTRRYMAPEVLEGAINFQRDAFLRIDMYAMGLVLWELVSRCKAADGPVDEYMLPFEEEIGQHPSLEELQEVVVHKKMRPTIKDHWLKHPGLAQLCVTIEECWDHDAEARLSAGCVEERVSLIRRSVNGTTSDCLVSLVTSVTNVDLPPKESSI

Structure (SMILES) | KINOMEscan: IKK-alpha [1] | KINOMEscan: ACVR2B [2] | KINOMEscan: MTOR [3]
COc1cc(C(=O)N2CCC(N3CCN(C)CC3)CC2)ccc1Nc1ncc2c(n1)N(C)c1ccccc1C(=O)N2C [15 (LRRK2-IN-1)] | 100 | 100 | 97
COc1cc(C(=O)N2CCC(N3CCN(C)CC3)CC2)ccc1Nc1ncc2c(n1)N(C1CCCC1)c1ccccc1C(=O)N2C [Compound 25, 11-cyclopentyl-2-((2-methoxy-4-(4-(4-methylpiperazin-1-yl)piperidine-1-carbonyl)phenyl)amino)-5-methyl-5H-benzo[e]pyrimido[5,4-b][1,4]diazepin-6(11H)-one] | 100 | 91 | 100
CCOc1cc(C(=O)N2CCC(N3CCN(C)CC3)CC2)ccc1Nc1ncc2c(n1)N(C1CCCC1)c1ccccc1C(=O)N2C [Compound 26] | 100 | 100 | 100
